Holding throughout (format): cell-based
The test system of test [1] is Bacteroides fragilis sp. vulgatus 1211. The experiment in a line: Susceptibility of anaerobic bacteria, agar dilution. Particulars: Bacteroides fragilis, 24 h, read-out: 24 Hr. Minimum Inhibitory Concentration.
For test [2], the system named is Fusobacterium symbiosum 1470. Described as above. The conditions noted are these: Fusobacterium, 1470, 24 h, read-out: 24 Hr. Minimum Inhibitory Concentration.
Test [3] relates to Bacteroides fragilis sp. fragilis 1877. The test is described as above. Particulars: Bacteroides fragilis, 24 h, read-out: 24 Hr. Minimum Inhibitory Concentration.
Test [4] relates to Veillonella alcalescens 1. Described as above. The conditions noted are these: read-out: 24 Hr. Minimum Inhibitory Concentration.
The next test concerns Clostridium ramosum 1313. The description is as above. Particulars: Thomasclavelia ramosa, 24 h; Clostridium ramosum 1313; read-out: 24 Hr. Minimum Inhibitory Concentration.
Test [5] has as its system Propionibacterium acnes 79. Described as above. The conditions noted are these: Cutibacterium acnes, 79, 24 h, read-out: 24 Hr. Minimum Inhibitory Concentration.
Test [6] relates to Propionibacterium acnes 44. Described as above. Particulars: read-out: 24 Hr. Minimum Inhibitory Concentration.
Test [7] deals with Eubacterium aerofaciens 1235. The test is described as above. Particulars: Collinsella aerofaciens, 1235, 24 h, read-out: 24 Hr. Minimum Inhibitory Concentration.
Test [8] concerns Clostridium septicum 1128. Described as above. Particulars: 24 h, read-out: 24 Hr. Minimum Inhibitory Concentration. The method, then:
(§1) The susceptibility of anaerobic bacteria, both gram positive and gram negative, to a representative number of the novel compounds of this application was determined using the agar dilution method. The bacteria used were isolated from patients hospitalized at the Indiana University Medical Center. The isolates were identified in the anaerobe laboratory of the Medical Center by the criteria established by Dowell et al., Laboratory Methods in Anaerobic Bacteriology. Public Health Serv. Publ. No. 1803 (1968) [Center for Disease Control, Atlanta, Ga.]; and by Smith et al., The Pathogenic Anaerobic Bacteria, pages 96-136 (1968) [Charles C. Thomas, Publisher, Springfield, Ill.]. All the organisms were maintained in chopped meat glucose medium (Scott Labs) at room temperature.
(§2) The method used for the agar dilution tests was based on the studies of Sutter et al., Antimicrob. Ag. Chemother. 3, 188-193 (1973). The strains of anaerobic bacteria were grown in 16 × 120 mm. tubes for 16 to 18 hours in Thioglycolate medium without indicator--135C (Becton, Dickinson and Co.), to which was added 5 mcg. of hemin per milliliter prior to autoclaving, plus 1 mg. of sodium bicarbonate and 0.1 mcg. of filter-sterilized menadione per milliliter after autoclaving. The growth tubes for the bacteria Veillonella alcalescens were additionally supplemented with 5 mg. of sodium lactate per milliliter. The strains were adjusted to the turbidity of the No. 1 McFarland standard in Thioglycolate medium without indicator--135C containing an additional 0.13 percent Bacto-agar (Difco). Each strain was then applied to the surface of the petri plate (100 mm. × 15 mm.) by means of a replicator.
(§3) For the agar dilution studies, two-fold dilutions of the test compounds were prepared in deionized water to which was then added laked sheep blood and filter-sterilized menadione so the concentrations after the agar dilution were 5 percent and 10 mcg./ml. respectively. An equal volume of double strength Brucella agar (Becton, Dickinson and Co.) was mixed with each dilution in a water bath held at 50°C. and then poured onto the petri plates.
(§4) All of the procedures were done inside a plastic glove box, except for the incubation of the growth tubes and the pouring of the plates. After the plates hardened, they were put inside the glove box for a minimum of two hours before they were inoculated. Generally, the glove box procedures of Aranki et al., Applied Microbiology 17, 568-576 (1969), were followed, but the following modifications were used. Dry materials were introduced into the glove box by evacuating the lock to 28 inches of mercury and filling once with nitrogen gas, followed by evacuating in the same manner and filling with an 80 percent nitrogen plus 10 percent CO2 plus 10 percent hydrogen gas mixture. Liquid media and agar plates were introduced into the glove box by evacuating the lock to 10 inches of mercury and filling with gas four times. The nitrogen gas was used to fill the lock for the first two cycles of evacuation, with the gas mixture described above used for the final two fillings.
(§5) All the plates were incubated at 37°C. in Gas Pak jars (Becton, Dickinson and Co.) containing palladium-coated alumina catalysts (reactivated after each use). The results of the agar dilution tests were read after about 24 hours of incubation. The minimum inhibitory concentration (MIC) was recorded as the lowest concentration of test compound at which there was no growth.
(§6) The results of these in vitro tests are recorded in Charts 11 and 12 which follow. The test compounds are identified in the same manner as in the previous experiments. The antibiotics cephalothin and erythromycin were also run simultaneously with the novel compounds of this application, for comparison purposes, and the results are included in Charts 11 and 12 below.

Test [9] concerns Clostridium septicum bovine. Described as above. The conditions noted are these: 24 h, read-out: 24 Hr. Minimum Inhibitory Concentration. The method, then:
as §1, §2, §3, §4, §5, §6

Another test concerns Actinomyces bovis 13684. The description is as above. Particulars: read-out: 24 Hr. Minimum Inhibitory Concentration.
Test [10] has as its system Peptococcus anaerobius 1428. The test is described as above. The conditions noted are these: 24 h, read-out: 24 Hr. Minimum Inhibitory Concentration.
For test [11], the system named is Clostridium innocuum 1373. The description is as above. The conditions noted are these: read-out: 24 Hr. Minimum Inhibitory Concentration.
Test [12] deals with Bacteroides fragilis sp. vulgatus 1563. The description is as above. Particulars: Bacteroides fragilis, 24 h, read-out: 24 Hr. Minimum Inhibitory Concentration.
Test [13] concerns Bacteroides fragilis sp. fragilis 1936B. The test is described as above. Particulars: 24 h, read-out: 24 Hr. Minimum Inhibitory Concentration.
Test [14] has as its system Bacteroides fragilis sp. thetaiotaomicron 1438. The test is described as above. Particulars: Bacteroides fragilis, 24 h, read-out: 24 Hr. Minimum Inhibitory Concentration.
The subject of test [15] is Peptostreptococcus intermedius 1264. Described as above. Particulars: read-out: 24 Hr. Minimum Inhibitory Concentration.
Test [16] relates to Clostridium perfringens 81. The experiment in a line: microbe, parasite or virus in culture. Particulars: Clostridium perfringens, 81, 24 h, read-out: 24 Hr. Minimum Inhibitory Concentration.
Test [17] concerns Fusobacterium necrophorum 13859. The experiment in a line: Susceptibility of anaerobic bacteria, agar dilution. The conditions noted are these: Fusobacterium necrophorum, 13859, 24 h, read-out: 24 Hr. Minimum Inhibitory Concentration. In general terms: Agar dilution tests growth on a series of plates holding different concentrations.
The mark [18] stands for this setting: Veillonella parvula, 24 h, Veillonella alcalescens 1.
[19] abbreviates: [Clostridium] innocuum, 1373, 24 h.
[20] abbreviates: Cutibacterium acnes, 24 h, Propionibacterium acnes 44.
[21] abbreviates: 24 h, Peptostreptococcus intermedius 1264.

Each structure is given as a SMILES string. In brackets after ≈: the same amount, converted by molar mass. Read-outs that look alike come from different tables or passages of the source. A value given as a limit tells only on which side of the number the result lay.

This passage reports MIC results from patent publication US3980794A, “Method for promoting growth of poultry with 3-(5-nitro-2-imidazolyl)pyrazoles” (Eli Lilly and Company, priority 1975, dated 1976).

As to `CC(=O)OCC1=C(C(=O)O)N2C(=O)[C@@H](NC(=O)Cc3cccs3)[C@H]2SC1` [Cephalothin, cephalothin, reference compound], the MIC in test [1] is 4 µg/mL (≈ 10.1 µM); in test [2], 64 µg/mL (≈ 161 µM); in [3], over 128 µg/mL; in [4] (setting [18]), under 0.5 µg/mL; in the test with Clostridium ramosum 1313, 8 µg/mL (≈ 20.2 µM); in test [5], 1 µg/mL (≈ 2.52 µM). Moreover, the MIC in test [6] (Cutibacterium acnes, 44, 24 h) is 2 µg/mL (≈ 5.04 µM); in test [7], 2 µg/mL (≈ 5.04 µM); in test [8], 1 µg/mL (≈ 2.52 µM); in test [9], 4 µg/mL (≈ 10.1 µM); in the test on Actinomyces bovis 13684 (24 h, Actinomyces bovis 13684) it was 2 µg/mL (≈ 5.04 µM); in test [10], 2 µg/mL (≈ 5.04 µM). In addition, the MIC in [11] (24 h, Clostridium innocuum 1373) was 8 µg/mL (≈ 20.2 µM); in test [12], 8 µg/mL (≈ 20.2 µM); in [13] (Bacteroides fragilis), over 128 µg/mL; in [14], 64 µg/mL (≈ 161 µM); in test [15] (Peptostreptococcus, 1264, 24 h), 1 µg/mL (≈ 2.52 µM); in test [16], 2 µg/mL (≈ 5.04 µM). For the same compound, the MIC in test [17] was under 0.5 µg/mL.
In the case of `CC[C@H]1OC(=O)[C@H](C)[C@@H](O[C@H]2C[C@@](C)(OC)[C@@H](O)[C@H](C)O2)[C@H](C)[C@@H](O[C@@H]2O[C@H](C)C[C@H](N(C)C)[C@H]2O)[C@](C)(O)C[C@@H](C)C(=O)[C@H](C)[C@@H](O)[C@]1(C)O` [Erythromycin, erythromycin, reference compound], the MIC in test [1] was 2 µg/mL (≈ 2.73 µM); in [2], under 0.5 µg/mL; in test [3], 4 µg/mL (≈ 5.45 µM); in test [4] (setting [18]), 1 µg/mL (≈ 1.36 µM); in the test on Clostridium ramosum 1313, over 128 µg/mL; in [5], under 0.5 µg/mL. Besides, the MIC in test [6] (Cutibacterium acnes, 44, 24 h) was under 0.5 µg/mL; in [7] it was 1 µg/mL (≈ 1.36 µM); in test [8] it was 1 µg/mL (≈ 1.36 µM); in test [9], under 0.5 µg/mL; with Actinomyces bovis 13684 (Actinomyces bovis, 13684, 24 h), 1 µg/mL (≈ 1.36 µM); in test [10] it was 1 µg/mL (≈ 1.36 µM). Further, the MIC is over 128 µg/mL in test [11] (setting [19]); 2 µg/mL (≈ 2.73 µM) in test [12]; 4 µg/mL (≈ 5.45 µM) in [13] (Bacteroides fragilis); 4 µg/mL (≈ 5.45 µM) in test [14]; 8 µg/mL (≈ 10.9 µM) in [15] (Peptostreptococcus, 1264, 24 h); under 0.5 µg/mL in test [16]. The MIC in test [17] was found to be 2 µg/mL (≈ 2.73 µM).
In the case of `Cn1nc(-c2ncc([N+](=O)[O-])n2C)cc1N` [Compound 3, 5-Amino-1-methyl-3-(1-methyl-5-nitro-2-imidazolyl)pyrazole], the MIC is under 0.125 µg/mL in test [1]; under 0.125 µg/mL in test [2]; under 0.125 µg/mL in test [3]; under 0.125 µg/mL in [4] (Veillonella parvula, 1, 24 h); 4 µg/mL (≈ 18 µM) in the test on Clostridium ramosum 1313; under 0.125 µg/mL in test [5]. Further, the MIC is 0.5 µg/mL (≈ 2.25 µM) in test [6] (setting [20]); under 0.125 µg/mL in [7]; under 0.125 µg/mL in [8]; under 0.125 µg/mL in test [9]; under 0.125 µg/mL in the test with Actinomyces bovis 13684 (Actinomyces bovis, 13684, 24 h); under 0.125 µg/mL in test [10]. Further, the MIC in test [11] (setting [19]) was under 0.125 µg/mL; in [12], under 0.125 µg/mL; in test [13] (Bacteroides fragilis), under 0.125 µg/mL; in [14], under 0.125 µg/mL; in test [15] (setting [21]), 16 µg/mL (≈ 72 µM); in test [16], under 0.125 µg/mL. For the same compound, the MIC in test [17] is under 0.125 µg/mL.
Take `Cn1c([N+](=O)[O-])cnc1-c1nn(CCCl)c(N)c1C#N` [Compound 15, 5-Amino-1-(2-chloroethyl)-3-(1-methyl-5-nitro-2-imidazolyl)pyrazole-4-carbonitrile]: the MIC in test [1] is under 0.125 µg/mL; in test [2], under 0.125 µg/mL; in [3] it was under 0.125 µg/mL; in test [4] (Veillonella parvula, 1, 24 h), under 0.125 µg/mL; with Clostridium ramosum 1313, 0.5 µg/mL (≈ 1.69 µM); in test [5], under 0.125 µg/mL. Also, the MIC is over 32 µg/mL in test [6] (setting [20]); under 0.125 µg/mL in [7]; 0.25 µg/mL (≈ 0.845 µM) in test [8]; under 0.125 µg/mL in test [9]; 1 µg/mL (≈ 3.38 µM) in the test with Actinomyces bovis 13684 (24 h, Actinomyces bovis 13684); 1 µg/mL (≈ 3.38 µM) in test [10] (Peptococcus anaerobius 1428). Moreover, the MIC in test [11] (setting [19]) is under 0.125 µg/mL; in [12], under 0.125 µg/mL; in test [13] (Bacteroides fragilis sp. fragilis 1936B), 0.5 µg/mL (≈ 1.69 µM); in [14], under 0.125 µg/mL; in test [15] (setting [21]) it was 8 µg/mL (≈ 27.1 µM); in test [16], under 0.125 µg/mL. Further, the MIC in test [17] was under 0.125 µg/mL.
